The subject of one assay is K562 cells. Nature of the assay: SRB antiproliferative assay, monolayer culture. In kind it is cell-based, human. To be noted: Homo sapiens, K562, 72 h, mean ± S.E.M. The protocol:
(§1) EBC-1 (human lung […] cells with MET gene amplification) and Mia-Paca-2 (human PDAC cells) were obtained from Japanese Collection of Research Bio Resources Cell Bank (JCRB). AsPC-1 (human PDAC), MKN-45 (human gastric adenocarcinoma cells with MET gene amplification), HT-29 (human colorectal adenocarcinoma), and K562 cells (human chronic myelogenous leukemia) were obtained from the Iranian Biological Resource Centre, Tehran, Iran. AsPC-1, EBC-1, MKN-45, and K562 cells were cultured in RPMI 1640 medium containing 10% heat-inactivated fetal bovine serum (FBS) and 1% penicillin/streptomycin. Mia-Paca-2 and HT-29 cells were grown in DMEM low glucose, containing 10% and 20% heat-inactivated FBS, resoectively and 100 U/ml penicillin/streptomycin. All cells were grown in monolayer cultures at 37 °C in a humidified incubator with 5% CO2.
(§2) Antiproliferative effects of synthetic compounds were evaluated by the SRB assay as described previously. Cancer cells were trypsinized, homogenous cell suspensions were prepared and 100 µl of cell suspensions were cultured at the densities of 5 × 10^4 cells/ml (for AsPC-1 and Mia-Paca-2), 4 × 10^4 cells/m (for EBC-1 and MKN-45), 3 × 10^4 cells/ml (for K562) and 1 × 10^4 cells/ml (for HT-29) in 96-well flat-bottom plates. After 24 h of incubation to allow cells to attach and resume optimal growth, the synthetic compounds dissolved in DMSO and diluted in the growth medium were added. One hundred µl of synthesized derivatives were added at different concentrations in triplicate and incubated for an additional 72 h at 37 °C. The cells were then fixed by gentle addition of 50 μl cold trichloroacetic acid (TCA) 50% (w/v, 10% final concentration) and incubated for 60 min at 4 °C. Then, the supernatant was discarded, and the plates were washed four times with distilled water and air dried. Afterwards, 100 μl of SRB solution 0.04% (w/v) dissolved in 1% acetic acid was added to each well, and plates were incubated for 15 min at room temperature. At the next step, the unbound dye was removed by washing four times with 1% acetic acid and the plates were air dried. The bound stain was finally solubilized with 150 μl of 10 mM Tris base solution, and the absorbance was recorded at a wavelength of 540 nm with a Bio-Tek microplate reader (Model Synergy HTX).
On the technique in general: The SRB assay estimates cell density from bound dye.

In another assay the test system is EBC-1 cells. In words: SRB antiproliferative assay, monolayer culture. In kind it is cell-based, human. The following applies: Homo sapiens, EBC-1, 72 h, mean ± S.E.M. The protocol: as §1, §2
The next assay concerns MKN-45 cells. Nature of the assay: SRB antiproliferative assay, monolayer culture. To be noted: Homo sapiens, MKN-45, 72 h, mean ± S.E.M. In kind it is cell-based, human. The protocol:
as §1, §2

For the next assay, the system named is Mia-Paca-2 cells. Nature of the assay: SRB antiproliferative assay, monolayer culture. The following applies: Homo sapiens, MIA PaCa-2, 72 h, mean ± S.E.M. In kind it is cell-based, human. The protocol: as §1, §2
For a further assay, the target named is T1, PDGFRA (h) (Homo sapiens, UniProt P16234).
T1 construct: purchased Eurofins Discovery
T1 sequence (P16234 24-1089): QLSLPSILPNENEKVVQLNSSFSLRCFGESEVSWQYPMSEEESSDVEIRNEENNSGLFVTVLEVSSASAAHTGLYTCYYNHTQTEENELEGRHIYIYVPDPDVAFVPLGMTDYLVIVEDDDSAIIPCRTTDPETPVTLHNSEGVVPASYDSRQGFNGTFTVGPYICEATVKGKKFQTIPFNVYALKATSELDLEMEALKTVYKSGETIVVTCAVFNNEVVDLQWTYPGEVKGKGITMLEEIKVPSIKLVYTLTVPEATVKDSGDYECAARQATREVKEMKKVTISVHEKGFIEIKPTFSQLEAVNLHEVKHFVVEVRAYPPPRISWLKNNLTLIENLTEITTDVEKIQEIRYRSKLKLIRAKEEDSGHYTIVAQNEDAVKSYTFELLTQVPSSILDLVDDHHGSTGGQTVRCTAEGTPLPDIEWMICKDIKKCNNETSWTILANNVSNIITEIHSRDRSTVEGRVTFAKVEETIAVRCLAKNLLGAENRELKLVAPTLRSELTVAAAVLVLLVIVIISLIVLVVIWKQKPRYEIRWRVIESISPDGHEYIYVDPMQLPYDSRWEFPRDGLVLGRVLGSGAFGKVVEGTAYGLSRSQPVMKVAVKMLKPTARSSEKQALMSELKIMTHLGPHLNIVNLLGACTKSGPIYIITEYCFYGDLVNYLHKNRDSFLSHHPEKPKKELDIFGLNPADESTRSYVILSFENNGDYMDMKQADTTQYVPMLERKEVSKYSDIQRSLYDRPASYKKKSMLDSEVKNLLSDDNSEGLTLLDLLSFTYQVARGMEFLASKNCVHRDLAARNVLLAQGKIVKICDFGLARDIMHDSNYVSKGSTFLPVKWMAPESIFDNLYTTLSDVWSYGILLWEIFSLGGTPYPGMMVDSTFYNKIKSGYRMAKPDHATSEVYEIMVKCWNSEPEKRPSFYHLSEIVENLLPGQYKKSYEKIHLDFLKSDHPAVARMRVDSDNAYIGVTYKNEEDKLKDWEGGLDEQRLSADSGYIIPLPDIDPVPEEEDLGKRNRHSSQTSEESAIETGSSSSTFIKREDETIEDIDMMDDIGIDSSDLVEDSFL
In words: Radiometric kinase panel assay and dose-response. In kind it is biochemical. To be noted: for inhibition at 10 µM: radiometric assay, Km ATP. The protocol:
Moreover, a dose–response analysis was performed at six concentrations to determine the activity of compound 8c against PDGFRA kinase, and IC50 value was estimated by curve fitting. The tests were performed by Eurofins Discovery (https://www.eurofinsdiscovery.com).

Another assay has as its target T2, TRKA (h) (Homo sapiens, UniProt P04629).
T2 construct: purchased Eurofins Discovery
Nature of the assay: Radiometric kinase panel assay. Format: biochemical. To be noted: Km ATP.

The next assay relates to AsPC-1 spheroids. Nature of the assay: Three-dimensional spheroid growth inhibition, APH assay. In kind it is cell-based, human. The following applies: for Circularity and solidity of spheroids: AsPC-1 spheroids, after 72 h of treatment, ImageJ; for IC50: Homo sapiens, ASPC1, APH assay, 72 h treatment, read-out: IC50 in AsPC-1 three-dimensional spheroid model. The protocol:
Three-dimensional spheroid cell cultures were produced based on the liquid overlay technique. Agarose solution in RPMI (1.5% w/v) was prepared and sterilized in an autoclave. Then, each well of 96-well flat-bottom plates was coated with 50 µl of agarose solution and was left to solidify at room temperature for at least 2 h. One hundred twenty-five µl of a suspension of AsPC-1 cells in RPMI medium containing 10% FBS at a density of 2 × 10^5 cells/ml was added to each well. Afterwards, the plates were centrifuged at 700g for 5 min and incubated under standard culture conditions. After 48 h of incubation, which allowed one spheroid to be formed in each well, 100 µl of the medium was removed, and spheroids were treated with synthesized derivatives diluted in a fresh medium containing 10% FBS for 72 h.
At the final step, cell viability was measured by the acid phosphatase (APH) assay, which is based on the hydrolysis of the p-nitrophenyl phosphate (pNPP) and its conversion to yellow p-nitrophenol by intracellular acid phosphatases present in viable cells. Briefly, 160 µl of the medium was removed and 200 µl of a solution containing 2 mg/ml pNPP dissolved in 0.1 M sodium acetate at pH 4.8 were added to each well and incubated for 120 min at 37 °C. Afterwards, 10 µl of NaOH 1 M was added to each well to stop the reaction, and the absorbance was recorded at 405 nm within 10 min by a Bio-Tek microplate reader (Model Synergy HTX). The images of spheroids were recorded by a bright field microscope (Nikon model DS-Ri2) and analyzed with Nikon NIS-Elements AR imaging software for Windows version 4.30.

The target in another assay is T3, ABL (h) (Homo sapiens, UniProt P00519).
T3 construct: purchased Eurofins Discovery
T3 sequence (P00519 whole entry): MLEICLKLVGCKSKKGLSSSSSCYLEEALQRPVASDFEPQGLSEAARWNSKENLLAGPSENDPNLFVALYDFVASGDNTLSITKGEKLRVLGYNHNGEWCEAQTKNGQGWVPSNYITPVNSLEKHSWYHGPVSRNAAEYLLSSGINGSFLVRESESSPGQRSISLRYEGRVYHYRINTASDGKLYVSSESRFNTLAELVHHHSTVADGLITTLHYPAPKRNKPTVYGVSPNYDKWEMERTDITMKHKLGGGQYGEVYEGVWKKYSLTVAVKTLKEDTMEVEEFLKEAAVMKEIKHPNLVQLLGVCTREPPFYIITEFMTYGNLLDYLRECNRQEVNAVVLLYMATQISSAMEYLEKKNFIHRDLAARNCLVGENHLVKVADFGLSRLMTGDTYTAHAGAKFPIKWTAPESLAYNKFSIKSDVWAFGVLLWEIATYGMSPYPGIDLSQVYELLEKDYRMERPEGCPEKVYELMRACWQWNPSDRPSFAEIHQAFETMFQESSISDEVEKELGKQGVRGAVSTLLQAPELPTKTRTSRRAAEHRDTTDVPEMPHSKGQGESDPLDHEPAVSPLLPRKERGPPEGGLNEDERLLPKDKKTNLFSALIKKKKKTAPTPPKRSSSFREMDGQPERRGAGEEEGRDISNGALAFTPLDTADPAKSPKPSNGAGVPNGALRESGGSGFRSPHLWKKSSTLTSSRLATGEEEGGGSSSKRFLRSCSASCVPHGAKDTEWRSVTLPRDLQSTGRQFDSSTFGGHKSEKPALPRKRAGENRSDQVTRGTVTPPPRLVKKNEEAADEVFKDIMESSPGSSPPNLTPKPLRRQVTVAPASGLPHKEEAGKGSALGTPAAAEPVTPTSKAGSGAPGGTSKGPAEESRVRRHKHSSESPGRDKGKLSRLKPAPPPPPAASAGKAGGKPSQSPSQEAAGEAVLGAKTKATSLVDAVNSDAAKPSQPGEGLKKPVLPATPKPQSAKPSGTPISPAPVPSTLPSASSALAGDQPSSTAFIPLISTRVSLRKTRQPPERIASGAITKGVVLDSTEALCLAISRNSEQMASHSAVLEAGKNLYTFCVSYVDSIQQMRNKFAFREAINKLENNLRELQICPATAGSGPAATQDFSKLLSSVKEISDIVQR
Nature of the assay: Radiometric kinase panel assay. In kind it is biochemical. The following applies: Km ATP.

For the next assay, the system named is AsPC-1 cells. In words: Apoptosis induction, annexin V-FITC/PI flow cytometry. Format: cell-based, human. The following applies: 10 μM, 48 h; for Late apoptosis: untreated 4.8%; for Early apoptosis: untreated 7.6%; for Percentage of total apoptosis: untreated 12.4%. The protocol:
The ability of apoptosis induction of synthetic compounds was evaluated by FACS analysis with Annexin V-FITC/propidiuim iodide (PI) staining kit (BD Pharmingen, San Diego, CA, USA). AsPC-1 cells were cultured in 6-well plates at a density of 1 × 10^5 cells/ml. After 24 h, the synthesized derivatives at different concentrations were added and incubated for 48 h. After addition of trypsin to each well, the cells were harvested, transferred to 1.5 ml tubes and washed twice with PBS. At the final step, the cells were stained with Annexin V-FITC (5 µl) and PI (5 µl), followed by analysis by a FACS Calibur flow cytometer (Becton Dickinson, Mountain View, CA, USA). The effects of synthetic derivatives on the apoptosis rate were evaluated based on the fluorescence signal of 20,000 events.
Background: Flow cytometry measures light scatter and fluorescence of single cells or particles in a stream.

In a further assay the target is T4, KIT (h) (Homo sapiens, UniProt P10721).
T4 construct: purchased Eurofins Discovery
T4 sequence (P10721 26-976): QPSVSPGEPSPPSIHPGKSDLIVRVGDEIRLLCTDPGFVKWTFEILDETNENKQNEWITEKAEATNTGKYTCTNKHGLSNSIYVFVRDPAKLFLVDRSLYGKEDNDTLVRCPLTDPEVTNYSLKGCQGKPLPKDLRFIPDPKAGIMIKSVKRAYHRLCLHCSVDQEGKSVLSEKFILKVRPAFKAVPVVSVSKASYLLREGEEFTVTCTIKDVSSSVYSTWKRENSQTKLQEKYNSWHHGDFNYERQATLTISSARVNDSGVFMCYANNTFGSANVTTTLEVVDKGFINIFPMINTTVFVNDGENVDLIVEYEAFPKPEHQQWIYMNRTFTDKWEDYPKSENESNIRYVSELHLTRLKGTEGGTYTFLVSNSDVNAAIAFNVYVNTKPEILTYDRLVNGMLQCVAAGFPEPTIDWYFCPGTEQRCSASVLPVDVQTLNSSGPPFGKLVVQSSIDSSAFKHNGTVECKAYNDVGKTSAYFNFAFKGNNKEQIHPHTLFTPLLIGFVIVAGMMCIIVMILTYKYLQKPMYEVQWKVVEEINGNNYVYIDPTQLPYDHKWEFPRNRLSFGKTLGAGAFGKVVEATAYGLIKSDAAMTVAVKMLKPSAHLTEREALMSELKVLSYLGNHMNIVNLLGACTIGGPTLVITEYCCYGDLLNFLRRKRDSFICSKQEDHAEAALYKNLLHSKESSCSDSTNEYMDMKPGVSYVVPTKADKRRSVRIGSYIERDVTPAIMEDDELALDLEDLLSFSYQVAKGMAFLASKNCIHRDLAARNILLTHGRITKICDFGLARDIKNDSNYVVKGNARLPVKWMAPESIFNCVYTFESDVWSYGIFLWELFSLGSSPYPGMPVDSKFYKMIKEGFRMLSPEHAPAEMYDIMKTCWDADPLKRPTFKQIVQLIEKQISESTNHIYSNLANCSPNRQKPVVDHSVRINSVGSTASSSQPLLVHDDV
In words: Radiometric kinase panel assay. Format: biochemical. The following applies: Km ATP.

The next assay has as its target T5, ALK (h) (Homo sapiens, UniProt Q9UM73).
T5 construct: purchased Eurofins Discovery
In words: Radiometric kinase panel assay. In kind it is biochemical. The following applies: Km ATP.

The next assay addresses T6, FLT3 (h) (Homo sapiens, UniProt P36888).
T6 construct: purchased Eurofins Discovery
Nature of the assay: Radiometric kinase panel assay. The following applies: Km ATP. Format: biochemical.

In a further assay the target is T7, AKT1 (h) (Homo sapiens, UniProt P31749).
T7 construct: purchased Eurofins Discovery
T7 sequence (P31749 whole entry): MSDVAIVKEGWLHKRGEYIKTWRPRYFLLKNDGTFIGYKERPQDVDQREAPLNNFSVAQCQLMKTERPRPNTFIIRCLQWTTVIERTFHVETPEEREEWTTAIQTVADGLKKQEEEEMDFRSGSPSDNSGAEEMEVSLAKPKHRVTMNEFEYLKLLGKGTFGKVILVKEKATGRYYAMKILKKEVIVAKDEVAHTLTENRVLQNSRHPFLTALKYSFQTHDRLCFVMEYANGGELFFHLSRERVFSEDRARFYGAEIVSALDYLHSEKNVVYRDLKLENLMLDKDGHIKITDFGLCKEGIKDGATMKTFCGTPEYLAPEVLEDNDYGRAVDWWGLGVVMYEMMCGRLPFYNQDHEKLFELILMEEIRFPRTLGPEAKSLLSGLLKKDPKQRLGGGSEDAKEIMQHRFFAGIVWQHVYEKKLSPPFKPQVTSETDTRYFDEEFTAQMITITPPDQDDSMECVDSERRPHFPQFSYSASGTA
Nature of the assay: Radiometric kinase panel assay. Format: biochemical. To be noted: Km ATP.

This is an account of results in paper PMC10482942, “Novel quinazoline-1,2,3-triazole hybrids with anticancer and MET kinase targeting properties” (Scientific Reports, 2023).

Usually IC50 stands for the midpoint of a concentration-inhibition curve. As usually defined, the inhibition is the share of the control response that was lost under treatment.

T6 sequence (P36888 27-993): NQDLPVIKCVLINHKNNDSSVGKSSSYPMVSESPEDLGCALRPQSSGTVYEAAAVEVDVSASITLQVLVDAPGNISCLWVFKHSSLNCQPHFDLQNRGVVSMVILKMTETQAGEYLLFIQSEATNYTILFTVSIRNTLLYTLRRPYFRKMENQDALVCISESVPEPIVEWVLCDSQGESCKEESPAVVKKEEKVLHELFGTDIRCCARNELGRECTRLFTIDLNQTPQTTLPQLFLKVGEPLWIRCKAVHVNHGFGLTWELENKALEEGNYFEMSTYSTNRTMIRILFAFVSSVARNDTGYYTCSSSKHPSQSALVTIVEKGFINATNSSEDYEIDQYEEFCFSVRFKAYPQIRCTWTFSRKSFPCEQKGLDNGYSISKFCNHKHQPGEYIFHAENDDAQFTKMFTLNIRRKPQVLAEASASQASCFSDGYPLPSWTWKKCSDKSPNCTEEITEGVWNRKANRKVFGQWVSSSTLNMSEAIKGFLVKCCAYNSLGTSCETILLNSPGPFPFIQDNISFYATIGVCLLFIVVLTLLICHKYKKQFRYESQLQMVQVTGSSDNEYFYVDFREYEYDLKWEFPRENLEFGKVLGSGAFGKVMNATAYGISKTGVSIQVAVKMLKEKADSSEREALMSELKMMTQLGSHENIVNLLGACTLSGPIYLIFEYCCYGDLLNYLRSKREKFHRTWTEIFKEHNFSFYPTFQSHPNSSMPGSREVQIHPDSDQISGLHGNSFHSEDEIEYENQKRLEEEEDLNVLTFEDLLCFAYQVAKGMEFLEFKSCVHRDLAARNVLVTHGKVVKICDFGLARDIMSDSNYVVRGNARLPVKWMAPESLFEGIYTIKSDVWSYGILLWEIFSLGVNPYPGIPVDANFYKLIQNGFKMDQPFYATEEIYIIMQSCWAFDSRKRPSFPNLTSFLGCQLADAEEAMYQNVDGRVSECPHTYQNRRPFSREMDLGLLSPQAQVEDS

On to `Cc1ccc(Cn2cc(COc3ccc(C=NNc4ncnc5ccccc45)cc3)nn2)cc1` [Compound 8c, 2-(4-((1-(4-Methylbenzyl)-1H-1,2,3-triazol-4-yl)methoxy)benzylidene)-1-(quinazolin-4-yl)hydrazine], for which the IC50 with K562 cells turned out to be 31.5 ± 6.4 µM; in the assay with EBC-1 cells it was 19 ± 0.7 µM; in the assay on MKN-45 cells, 22 ± 4.8 µM; in the assay on Mia-Paca-2 cells, 25.6 ± 2.4 µM; on PDGFRA (h) (dose-response at six concentrations, curve fitting, read-out: PDGFRA kinase inhibition IC50), 7.1 µM; in the assay with AsPC-1 spheroids, 32.7 ± 7.2 µM. Further, the inhibition at 10 µM against PDGFRA (h) came out at 58%; against TRKA (h), 13%; against ABL (h), 8%; against KIT (h), 7%; on ALK (h), 3%; on FLT3 (h), 8%. For the same compound, at 10 µM the inhibition on AKT1 (h) was 15%. The “Circularity and solidity of spheroids” value with AsPC-1 spheroids is “significant reduction”. For the same compound, in the assay with AsPC-1 cells, the Late apoptosis came to 10.7%. The Early apoptosis with AsPC-1 cells is 15.5%. In addition, the “Percentage of total apoptosis” value with AsPC-1 cells came out at 26.1%.

On to `CC(C)(C)c1ccc(Cn2cc(COc3ccc(C=NNc4ncnc5ccccc45)cc3)nn2)cc1` [Compound 8h, 2-(4-((1-(4-Tert-butylbenzyl)-1H-1,2,3-triazol-4-yl)methoxy)benzylidene)-1-(quinazolin-4-yl)hydrazine], for which the IC50 in the assay with K562 cells was 34.4 ± 6.4 µM; with EBC-1 cells, 6.1 ± 1 µM; in the assay on MKN-45 cells, 12 ± 3.9 µM; in the assay with Mia-Paca-2 cells, 11.5 ± 0.8 µM; in the assay with AsPC-1 spheroids, 36.6 ± 4.5 µM. The inhibition at 10 µM against PDGFRA (h) was 46%; at TRKA (h), 28%; at ABL (h), 17%; against KIT (h), 2%; against ALK (h), 14%; at FLT3 (h), 18%. At AKT1 (h), this compound displayed an inhibition at 10 µM of 26%. For the same compound, the “Circularity and solidity of spheroids” value in the assay on AsPC-1 spheroids is given as “significant reduction”. The Late apoptosis in the assay on AsPC-1 cells was determined as 9.6%. This compound also returned an Early apoptosis in the assay on AsPC-1 cells of 15.8%. Also, the “Percentage of total apoptosis” value with AsPC-1 cells is listed as 25.4%.
